For series [1] the following is noted: cited from earlier work.
The test system of series [2] is N-CAM 180. The experiment in a line: Neuraminidase treatment of cytosolic and membrane brain extracts, N-CAM immunoblot. Type of series: biochemical, human. The conditions noted are these: 1.25 U/ml diluted enzyme, 18 hrs at 37° C., FIG. 7A. The procedure:
Membrane “extracts” and “cytosolic” tissue extracts of human occipital cortex were prepared as described^8 with slight modifications^9. Frozen pulverized occipital cortex ˜50 g was suspended in 1000 ml of cold 0.05M Tris buffered saline (TBS, pH 7.4) with protease inhibitors: antipain (4 μg/ml), pepstatin A (2 μg/ml), aprotinin (2 μg/ml), leupeptin (2 μg/ml), and phenyl methyl sulfonyl fluoride (0.1 μg/ml). The solution was homogenized (Tissumizer; Tekmar, Cincinnati Ohio) for 5×10 sec pulses in a 4° C. ice bath and 30 sec cooling interval between pulses. The homogenate was centrifuged for 30 min at 42,000×g at 4° C. The clear supernatant with visible lipid removed was the “cytosolic” fraction. The pellet was resuspended and washed with cold TBS-protease inhibitor cocktail and re-centrifuged at 42,000×g for 30 min at 4° C. […] The supernatant was labeled “membrane extract.” Protein content of the “cytosolic” and “membrane” sample was measured by the micro bicinchoninic acid method (Pierce, Ill.).
Neuraminidase treatment of cytosolic and membrane brain extracts was accomplished by using neuraminidase enzyme from Vibrio cholerae (˜2.49 Units/ml, Fluka) in pH 5.5, 0.15M NaCl, 4 mM CaCl2 that was diluted with 50 mM sodium acetate, 4 mM CaCl2 and 0.2 mM EDTA, (pH 5.0; Buffer A) to 1.25 U/ml. […] Samples were analyzed by immunoblot for N-CAM with antibody 3732. […]

For series [3] the following is noted: cited from earlier work. This is another data set of the same source.
The subject of series [4] is N-CAM 180. In words: Incubation of human occipital cortex membrane and cytosolic fractions with protease inhibitors, N-CAM immunoblot. The series is classed as biochemical. The source says: Fresh or frozen human brain cortex is dissected free of pia mater layer and any obvious blood vessels on the surface of the cortex. Pulverize the cortex in a sufficient quantity of liquid Nitrogen to a friable state with mortar and pestle, and accurately weigh out replicate samples of pulverized brain sample while keeping all vessels frozen in dry ice. Place the quantity of protease inhibitor or neuraminidase inhibitor in a PBS buffer of final pH 7.4 and maintain buffer on ice. Add the varying concentrations and combinations of protease inhibitors and/or neuraminidase inhibitors to separate pulverized brain in tubes in a final volume to yield a 20% weight of brain tissue/buffer volume. Allow the tubes to adjust to room temperature, and incubate at standard room temperature conditions for varying time points. The end-point of the assay is accomplished by addition of a 2× denaturing reducing sample buffer such as commercially available and previously published, and heat 3 min at 95 degrees C. Proceed to standard SDS-PAGE and immunoblot conditions to determine the breakdown products of parent molecule N-CAM. Use appropriate control incubations for temperature breakdown and buffer breakdown without protease inhibitors and/or neuraminidase inhibitors. The results can be quantitatively assessed by densitometry of immunoblots as previously published which yields a linear response within a loading range of proteins (˜1-100 μg of protein) depending on gel capacity used and concentrations of antibody and detection substrates which are empirically determined with standard methods. […]
Membrane and cytosolic fractions from human occipital cortex were incubated in the presence of protease inhibitors (10 μM final concentration) for varying lengths of time (typically 2, 4, 8, 16, 32, and 48 hrs at room temperature). An aliquot was analyzed by gel electrophoresis and immunoblotted with N-CAM 3732 antibody. […] The supernatant was labeled “membrane extract.” Protein content of the “cytosolic” and “membrane extract” sample was measured by the micro bicinchoninic acid method (Pierce, Ill.).

The text below walks through data of patent US20030211545A1, “Treatment of neuropsychiatric disease with protease and neurominidase inhibitors” (priority 2002, published 2003).

Entries after “also recorded” stand apart in the source; their conditions may differ. Where two headings read alike, the source gives them in different places. Some results are limits rather than exact numbers.

As to Aprotinin, the tolerability in humans entry in series [1] (clinical trials) is on record as “generally well tolerated”. For the same molecule, the hypersensitivity reactions in series [1] (patients receiving aprotinin for the first time) is recorded as under 0.1 to 0.6%.
For the molecule “neuraminidase: neuraminidase enzyme from Vibrio cholerae (Fluka)”, the “effect on N-CAM 180 in membrane extracts” value with N-CAM 180 [2] is recorded as “removal of higher MW N-CAM 180”.
On to `CC(C)CN(C[C@@H](O)[C@H](Cc1ccccc1)NC(=O)O[C@H]1CCOC1)S(=O)(=O)c1ccc(N)cc1` [Amprenavir], for which, in series [3] (high-fat meal), the “effect of a high-fat meal on absorption of the drug” value is recorded as “decrease the absorption”. Moreover, the “severe or life-threatening rash” value in series [3] (of recipients) was 1%; in series [3] (of those who develop a rash), 4%. For the same molecule, the “severe and life-threatening skin reactions, including Stevens-Johnson syndrome” value in series [3] (patients treated) is reported as 1%.
With `CC(=O)N[C@@H](CC(C)C)C(=O)N[C@@H](CC(C)C)C(=O)N[C@H](C=O)CCCNC(=N)N` [leupeptin, Acetyl-leucyl-leucyl-arginal], in the series with N-CAM 180 [4] (10 μM final concentration, compared with the other protease inhibitors assayed individually), the “activity in prevention of the breakdown of N-CAM 180 and subsequent release/accumulation of cN-CAM” value is “most activity; also recorded: most effective”. For the same molecule, in the series on N-CAM 180 [4] (10 μM, room temperature, over the course of 48 hr, FIG. 8B and C), the “inhibition of the increase in cN-CAM” value is “completely inhibited”. Besides, the “potency compared to the protease inhibitor cocktail” value in the series with N-CAM 180 [4] (assayed in human brain) is recorded as “most potent”.
